Read-outs that look alike come from different tables or passages of the source. Ends that are not written are not given here.
What was measured:
[1] = molecular target: SPase I Δ2-75 (Escherichia coli, UniProt P00803); conditions: data not shown
[2] = molecular target: T1, KAP25 alkaline phosphatase signal peptide signal peptide (Escherichia coli, UniProt P00634 = phosphatase); experiment: fluorescence
T1 chain: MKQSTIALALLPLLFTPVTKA

For “KKKMKQSTIALALLPLLFTPVTKARTPEKKK-NH2 [KAP25]”, the “cleavage of KAP25 signal peptide” value ([1]; 24 hours of incubation with the enzyme) was “about 7%”, the “cleavage of KAP25 signal peptide” value ([1]; 36 hours of incubation with the enzyme) was ~19% and the “cleavage of KAP25 signal peptide” value ([1]; 48 hours of incubation with the enzyme) was ~27%.

B1: Signal peptidase I cytoplasmic domain (protein)
chain: IVRSFIYEPFQIPSGSMMPTLLIGDFILVEKFAYGIKDPIYQKTLIETGHPKRGDIVVFKYPEDPKLDYIKRAVGLPGDKVTYDPVSKELTIQPGCSSGQACENALPVTYSNVEPSDFVQTFSRRNGGEATSGFFEVPKNETKENGIRLSERKETLGDVTHRILTVPIAQDQVGMYYQQPGQQLATWIVPPGQYFMMGDNRDNSADSRYWGFVPEANLVGRATAIWMSFDKQEGEWPTGLRLSRIGGIH
With B1 the Kd [2] was 0.25 µM.

— publication PMC3277640 (Proteins, 2011)
